The values that follow come from patent US20060286046A1, “Skin care compositions” (priority 2005, published 2006).

Holding throughout (type): cell-based, human
Assay [1] has as its system JEG-3 cells. Put plainly: Viability experiments (Alamar Blue and CFDA-AM) after simulated solar radiation (SSR) exposure. To be noted: SSR 16 hours. Here is the method: (§1) JEG-3 cells, a human placental choriocarcinoma cell line of epithelial origin, were grown and maintained at 37° C., 5% CO2 in 75 mm^2 culture flasks until a confluent monolayer was formed. Cells were then removed, washed, re-suspended, and counted on a hemocytometer, allowing for the concentration to be adjusted to 30,000 cells/mL. Aliquots of 0.2 mL of the cell solution were added into each well of a 96 well micro-plate. The cells were incubated at 37° C., 5% CO2 for 48 hours prior to treatment to allow for a confluent monolayer to form. The media was aspirated off and new media with test compounds were added at various concentrations.
(§2) All treatments were made in MEM without FBS. The anti-oxidants were added directly to the medium. The cells were then incubated for 16 hours at 37° C./5% CO2 under simulated solar radiation (SSR) conditions, with a UVB:UVA:visible light ratio of 0.3:5.52:96 mmol m−2 s−1 (total fluence rate: 102 mmol m−2 s−1, which is about 5% of full sunlight).
Two viability experiments were done at the end of the incubation periods (Dark or SSR exposure). Alamar Blue™ is a metabolic (primarily mitochondrial) activity indicator that requires the reducing power of the cell to transform the dye from non-fluorescent to fluorescent. Carboxy-fluorescein diacetate (CFDA-AM) is also a fluorescent dye that requires cellular esterases inside a cell to become fluorescent. The presence of an intact membrane allows the CFDA-AM to concentrate and give a higher reading than may occur outside the cell. Both dyes were combined in phosphate buffered saline with glucose (PBSG) buffer and added to the microplate wells after the media (MEM plus treatment) was removed. […] The plates were incubated for 30 minutes at 37° C./5% CO2 and were then read on a fluorimeter (PerSeptive Biosystems Cytofluor 4000) with excitation and emission, respectively, set at 530 nm and 590 nm for Alamar Blue™ and 485 nm and 530 nm for CFDA-AM. Because of the different excitation and emission wavelengths as well as little cross-reactivity, both dyes can be used simultaneously. The results were calculated as a percentage of the control value.

Assay [2] concerns JEG-3 cells. The experiment in a line: Metabolic activity (Alamar Blue) after dark exposure. Conditions: incubated in the dark for 24 hours; FIG. 1. On the procedure: Alamar Blue™ is a metabolic activity indicator that requires the reducing power of the cell to transform the dye from the non-fluorescent to the fluorescent. Decreased metabolic activity of a cell is generally associated with cell damage due to a variety of stressors.
JEG-3 cells, a human placental choriocarcinoma cell line of epithelial origin, were grown and maintained at 37° C., 5% CO2 in 75 mm^2 culture flasks until a confluent monolayer was formed. Cells were then removed, washed, re-suspended, and counted on a hemocytometer, allowing for the concentration to be adjusted to 30,000 cells/mL. Aliquots of 0.2 mL of the cell solution were added into each well of a 96 well micro-plate. The cells were incubated at 37° C., 5% CO2 for 48 hours prior to treatment to allow for a confluent monolayer to form. […]
Two viability experiments were done at the end of the incubation periods (Dark or SSR exposure). […] The presence of an intact membrane allows the CFDA-AM to concentrate and give a higher reading than may occur outside the cell. […] The plates were incubated for 30 minutes at 37° C./5% CO2 and were then read on a fluorimeter (PerSeptive Biosystems Cytofluor 4000) with excitation and emission, respectively, set at 530 nm and 590 nm for Alamar Blue™ and 485 nm and 530 nm for CFDA-AM. […] The results were calculated as a percentage of the control value.
In general terms: Resazurin is reduced to fluorescent resorufin, in cell work by metabolically active cells.

Assay [3] concerns JEG-3 cells. Put plainly: Reactive oxygen species detection (H2DCFDA) after SSR exposure. Conditions: SSR 16 hours; FIG. 4. On the procedure:
as §1, §2
To determine the levels of ROS generated in the cell system, another fluorescent probe, H2DCFDA, was used. After the 16-hour incubation period under SSR, the media was removed. The probe was added to PBSG in a ratio of 1 μl/ml for a final concentration of 4 nM according to manufacturer instructions. From this mixture, 200 μl/well was added and the plate read on the Cytofluor 4000 at 485 nm excitation and 530 nm emission for 4 hours with readings taken every hour. Results are stated in relative fluorescence units representing the fluorescent product, dichlorofluorescein (DCF). The results were calculated as a percentage of the dark control.

Turning to `N[C@@H](CCC(=O)N[C@@H](CS)C(=O)NCC(=O)O)C(=O)O` [GSH, glutathione], in the assay on JEG-3 cells [1] (10 mM), the “protection of cell viability” value was “complete protection”.
For `CC(=O)N[C@@H](CS)C(=O)O` [NAC, N-acetylcysteine], in the assay with JEG-3 cells [2], the “metabolic activity compared to control cells” value is “did not differ significantly from control”. The “protection of cell viability” value in the assay on JEG-3 cells [1] (10 mM) is recorded as “complete protection”. In the assay on JEG-3 cells [3], the “ROS levels (DCF production)” value is on record as “decreased dye levels (DCF production)” and the “protective effect on ROS compared to other antioxidants” value is on record as “superior to ascorbate but not as great as GSH”.
For the compound `O=C1O[C@H]([C@@H](O)CO)C(O)=C1O` [ascorbate, ascorbic acid], the “protection of cell viability” value in the assay with JEG-3 cells [1] (10 mM) is “only partial protection”.
For the compound `NCCC(=O)N[C@@H](Cc1cnc[nH]1)C(=O)O` [carnosine, L-carnosine], the “metabolic activity compared to control cells” value with JEG-3 cells [2] is listed as “did not differ significantly from control”. The “protection of cell viability” value with JEG-3 cells [1] (10 mM) was “only partial protection”; in the assay on JEG-3 cells [1] (all concentrations) it was “only provided for partial protection of cell viability”. Moreover, the “ROS levels (DCF production)” value with JEG-3 cells [3] is listed as “did not decrease ROS levels”.
